Source: patent US4076802A (priority 1977, dated 1978)
Values after ≈ are worked out from the molar mass of the structure shown. Read-outs that look alike come from different tables or passages of the source.

How the values were obtained:
Solubility in solvents = assay type: physicochemical
mice = experiment: 24 hour acute toxicity in mice; assay type: in vivo
[1] = test system: Candida albicans 155 (yeast); experiment: Antifungal MIC, Table 5; assay type: cell-based; conditions: Culture NRRL 477
[2] = test system: Saccharomyces cerevisiae 90 (yeast); experiment: Antifungal MIC, Table 5; assay type: cell-based; conditions: Culture ATCC 4226
[3] = test system: Paecilomyces varioti M16 (fungus); experiment: Antifungal MIC, Table 5; assay type: cell-based; conditions: Culture ATCC 26820
[4] = test system: Penicillium digitatum 0184 (mold); experiment: Antifungal MIC, Table 5; assay type: cell-based; conditions: Culture ATCC 26821
[5] = test system: Piricularia oryzae (rice blast disease); conditions: in vivo
[6] = test system: Puccinia species (cereal rust disease); experiment: Activity against plant disease fungi on several crops; assay type: in vivo
[7] = test system: Uromyces species (cereal rust disease); experiment: as above; assay type: in vivo
[8] = test system: Botrytis cinerea (grey mold diseases); experiment: as above; assay type: in vivo
[9] = test system: Rhizoctonia solani (damping off diseases); experiment: as above; assay type: in vivo
Colorado potato beetle = experiment: Larvicidal activity; assay type: in vivo
army worm = experiment: Larvicidal activity; assay type: in vivo
housefly = experiment: Larvicidal activity; assay type: in vivo
bean beetle = experiment: Larvicidal activity; assay type: in vivo
mosquito larvae = experiment: Larvicidal activity; assay type: in vivo
KB cells = experiment: KB monolayer cytotoxicity test; assay type: cell-based, human
crown rust of oats = experiment: Fungicidal activity; assay type: in vivo; conditions: spraying as 25% wettable powder
wood decay organisms = experiment: Fungicidal activity; assay type: in vivo; conditions: spraying as 25% wettable powder

For `C/C=C/[C@H]1O[C@@](O)([C@@H](C)[C@H](O)[C@H](C)[C@H]2OC(=O)/C(OC)=C/C(C)=C/[C@@H](C)[C@@H](O)[C@@H](CC)[C@@H](O)[C@H](C)C/C(C)=C/C=C/[C@@H]2OC)C[C@@H](O[C@H]2C[C@@H](O)[C@H](OC(N)=O)[C@@H](C)O2)[C@@H]1C`, the solubility (Solubility in solvents; in 95% ethanol) was 47.5 mg/mL (≈ 54800 µM), the solubility (Solubility in solvents; in acetone) was > 100 mg/mL and the solubility (Solubility in solvents; in benzyl alcohol) was > 100 mg/mL. The solubility (Solubility in solvents; in dimethylformamide) was > 100 mg/mL, the solubility (Solubility in solvents; in glycerine) was < 1 mg/mL and the solubility (Solubility in solvents; in methanol) was > 100 mg/mL. For the same molecule, the solubility (Solubility in solvents; in polyethylene glycol 400) was < 1 mg/mL, the solubility (Solubility in solvents; in propylene glycol) was < 1 mg/mL and the solubility (Solubility in solvents; in tetrahydrofuran) was > 100 mg/mL. The solubility (Solubility in solvents; in water) was < 1 mg/mL, the “24 hour acute toxicity (LD50)” value (mice; i.p.) was 2.45 mg/kg and the “24 hour acute toxicity (LD50)” value (mice; p.o.) was 21 mg/kg. The MIC value [1] was 1.11 µg/mL (≈ 1.28 µM), the MIC value [2] was 3.33 µg/mL (≈ 3.84 µM) and the MIC value [3] was 3.33 µg/mL (≈ 3.84 µM). For the same molecule, the MIC value [4] was 3.33 µg/mL (≈ 3.84 µM), the “activity against Piricularia oryzae” value [5] was “active” and the fungicidal activity [5] was “exhibits fungicidal activity”. For the same molecule, the “activity against Puccinia species” value [6] was “active”, the “activity against Uromyces species” value [7] was “active” and the fungicidal activity ([8]; grey mold, spraying as 25% wettable powder) was “exhibits fungicidal activity”. The “activity against Botrytis cinerea” value ([8]; on several crops) was “active”, the “activity against Rhizoctonia solani” value [9] was “active” and the larvicidal activity (Colorado potato beetle) was “excellent activity”. The larvicidal activity (Colorado potato beetle; spraying on leaves) was “exhibits larvicidal activity”, the larvicidal activity (army worm) was “excellent activity” and the larvicidal activity (housefly) was “excellent activity”. For the same molecule, the larvicidal activity (bean beetle) was “excellent activity”, the larvicidal activity (bean beetle; spraying on leaves) was “exhibits larvicidal activity” and the larvicidal activity (mosquito larvae; mosquito larvae) was “excellent activity”. The larvicidal activity (mosquito larvae; mosquito, spraying) was “exhibits larvicidal activity”, the ID50 (KB cells) was 0.0045 µg/mL (≈ 0.0052 µM) and the fungicidal activity (crown rust of oats) was “exhibits fungicidal activity”. The fungicidal activity (wood decay organisms) was “exhibits fungicidal activity”.
